Measured values taken from patent US20110003772A1, “USE OF SPHINGOLIPIDS IN THE TREATMENT OF TYPE 2 DIABETES MELLITUS, INSULIN RESISTANCE AND METABOLIC SYNDROME” (priority 2004, published 2011).

How the values were obtained:
[1] = tested on: 3T3-L1 adipocytes; details: literature, Mei et al., 2002; cited from earlier work
[2] = target: T1, PPAR-α (Homo sapiens, UniProt Q07869); details: literature, Van Veldhoven et al., 2000; cited from earlier work
T1 sequence (Q07869 1-468): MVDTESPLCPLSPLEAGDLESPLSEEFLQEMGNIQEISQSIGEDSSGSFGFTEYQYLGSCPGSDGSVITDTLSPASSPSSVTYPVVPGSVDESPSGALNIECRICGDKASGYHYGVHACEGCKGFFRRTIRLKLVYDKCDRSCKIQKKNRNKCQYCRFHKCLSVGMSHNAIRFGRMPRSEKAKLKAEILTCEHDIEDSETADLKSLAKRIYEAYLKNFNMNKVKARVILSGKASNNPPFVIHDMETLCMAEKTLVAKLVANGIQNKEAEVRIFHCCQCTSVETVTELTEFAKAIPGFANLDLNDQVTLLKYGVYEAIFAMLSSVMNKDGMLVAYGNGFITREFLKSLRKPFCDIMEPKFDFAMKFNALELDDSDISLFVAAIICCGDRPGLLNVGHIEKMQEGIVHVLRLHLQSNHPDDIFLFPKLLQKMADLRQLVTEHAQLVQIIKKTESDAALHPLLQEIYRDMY

[3] = tested on: insulin resistant mice (male ApoE3*Leiden mice); experiment: Hyperinsulinemic euglycemic clamp in insulin resistant mice on high fat, high fructose diet; assay type: in vivo; details: 0.3% (w/w) in high fat, compared to control group
Source text: (§1) The “gold standard” for insulin resistance is a test called the hyperinsulinemic euglycemic clamp study. It is a complicated and expensive study in which insulin and glucose is infused intravenously at several different doses to see what levels of insulin control different levels of glucose. Essentially, the method of Koopmans et al., 2001 and Voshol et al., 2001.
Male ApoE3*Leiden mice were fed with a high fat, high fructose diet (24% casein, 17% corn starch, 14% cellulose, 1% cholesterol, 24% bovine lard, 20% fructose; all w/w). After 8 weeks all mice in this group were moderately insulin resistant and were strongly insulin resistant after 18 weeks. Two parallel groups of mice (n=8) were fed for another 10 weeks the same diet, but containing 0.3% (w/w of the dry food) of either egg sphingomyelin or phytosphingosine.
In another parallel experiment, three groups of 8 mice each were fed the same high fat, high fructose diet for 18 weeks. One group received 0.3% egg sphingomyelin during the whole period, one group received 0.3% phytosphingosine during the whole period and the last group served as the control group (i.e. received no additional sphingolipid).
(§2) All mice were fasted overnight and anaesthetised by intraperitoneal injection of Hypnorm® (fentanyl-fluanisone) (0.5 ml/kg body weight) and midazolam (12.5 mg/kg body weight). Mice were kept anaesthetised by administering 50 μl of Hypnorm®/midazolam subcutaneous every 45 minutes.
(§3) A needle filled with PBS was inserted into the tail vein and was connected to two pumps (Model 100 series, KdScienticic, PA, USA): one with an insulin solution consisting of 3057 μl PBS, 400 μl citrate (30 μg/μl) and 543 μl insulin (1 U/ml), and one pump with a solution of 6.25 g D-glucose in 50 ml PBS. Before the infusion with the two solutions was started, a capillary of blood was drawn from the tail tip. Subsequently a bolus of 30 μl of insulin was given and the pumps were started (50 μl/h). The mice were given rest for 30 minutes. Then every 10 minutes the glucose level was measured with a glucose handmeter (Freestyle, Disetronic Medical Systems AG, Burgdorf, Germany) and the glucose infusion rate was adjusted until the glucose concentration in the blood was constant for at least 20 minutes and a capillary of blood was drawn.
(§4) The insulin and glucose levels in the capillaries were measured using a standard commercial kit, according to the manufacturer's instructions (Hexokinase method, Instruchemie); and insulin levels were measured by Ultrasensitive mouse insulin ELISA, enzyme immunoassay according to the manufacturer's instructions (Mercodia, Sweden)

[4] = tested on: female ob/ob mice; experiment: Plasma parameters and body weight in 4 h fasted ob/ob mice fed chow or chow with 1% phytosphingosine; assay type: in vivo; details: for Body weight: mean ± SD of 10 mice; for Glucose (plasma) / Insulin (plasma): 4 h fasted, mean ± SD
Experimental: 20 female ob/ob mice (C57B1/6 background) were obtained from Charles River, The Netherlands and were acclimatized for a period of 2 weeks within the TNO-facilities. After a 4 hour fast, blood was drawn by tail bleeding and the animals were randomized according to body weight and plasma glucose levels. […] The mice were put on a regular chow diet (control) or regular chow supplemented with 1% phytosphingosine (1% PS). After three weeks of treatment a blood sample was drawn after a 4 hours fast and body weight was determined. […] The 1% PS treated mice maintained their initial body weight. […] We observed no differences in insulin levels between the groups.

[5] = tested on: female ob/ob mice; experiment: Hyperinsulinemic euglycemic clamp analysis in overnight fasted ob/ob mice; assay type: in vivo; details: 1% PS diet; for Glucose (plasma) during clamp: overnight fasted
Experimental: as §1, §2, §3, §4
1.5 weeks after the last blood sample (necessary for full recovery of the mice) the ob/ob mice were fasted overnight and subjected to a hyperinsulinemic euglycemic clamp analysis. […]

[6] = high fructose diet during the last 10 weeks of the 18 week experiment
[7] = high fructose diet during whole 18 weeks
[8] = T = 0 (starting point, before treatment), 1% PS group
[9] = T = 3 (3 weeks of chow with 1% PS)

CCCCCCCCCCCCC/C=C/[C@@H](O)[C@H](CO)NC(C)=O [C2-ceramide]
antilipolytic action of insulin [1]: decrease the antilipolytic action of insulin
lipolysis [1]: stimulate lipolysis

CCCCCCCCCCCCC/C=C/[C@@H](O)[C@H](CO)NC(C)=O [N-acetyl-sphingenine]
binding to the PPAR-α receptor [2]: not able to bind

CCCCCCCCCCCCC/C=C/[C@@H](O)[C@H](CO)NC(=O)CCCCCCCCCCCCCCC [N-hexadecanoyl-sphingenine]
binding to the PPAR-α receptor [2]: not able to bind

CCCCCCCCCCCCCC[C@@H](O)[C@@H](O)[C@@H](N)CO [phytosphingosine]
infusion rate of glucose, percentage of the infusion rate in strongly insulin resistant control mice [3, 6]: 114%
infusion rate of glucose, percentage of the infusion rate in strongly insulin resistant control mice [3, 7]: 102%
Body weight [4, 8]: 42.2 ± 4.6 g
Glucose (plasma) [4, 8]: 23.9 ± 5.1 mmol/L
Insulin (plasma) [4, 8]: 25.8 ± 14.1 ng/mL
Insulin (plasma) [4, 9]: 22.3 ± 6.8 ng/mL
Glucose (plasma) ([4]; T = 3 (3 weeks of chow with 1% PS), P < 0.01 vs. control): 26.0 ± 7.0 mmol/L
Body weight [4, 9]: 41.7 ± 3.7 g
glucose infusion rate (GIR) ([5]; vs. 46±8 in control ob/ob mice, P=0.001): 4.5 ± 0.96 mL/h/kg
Glucose (plasma) during clamp ([5]; Basal period (no insulin added)): 7.3 ± 2.4 mmol/L
Glucose (plasma) during clamp ([5]; Hyperinsulinemic period): 4.8 ± 1.3 mmol/L

CCCCCCCCCCCCCCC[C@@H](O)[C@@H](N)COP(=O)(O)O [sphinganine-1-phosphate]
binding to the PPAR-α receptor [2]: not able to bind

CCCCCCCCCCCCCCC[C@@H](O)[C@@H](N)CO [sphinganine]
binding to the PPAR-α receptor [2]: strong binding ligands

CCCCCCCCCCCCC/C=C/[C@@H](O)[C@@H](N)CO [sphingenine]
binding to the PPAR-α receptor [2]: strong binding ligands

ceramide
binding to the PPAR-α receptor [2]: not able to bind

phosphatidylcholine
binding to the PPAR-α receptor [2]: not able to bind

sphingomyelin
binding to the PPAR-α receptor [2]: not able to bind
infusion rate of glucose, percentage of the infusion rate in strongly insulin resistant control mice [3, 6]: 102%
infusion rate of glucose, percentage of the infusion rate in strongly insulin resistant control mice [3, 7]: 117%
